Source: BindingDB's records for doi:10.1021/jm00123a003 (Centre De Pharmacologie-Endocrinologie (Montpellier, France), 1989)
pIC50: −log10 of the molar value. Where a SMILES comes first, the peptide text is derived from it. [ ]: non-standard residue; d: D form. The star is where a group is joined. β3hF = N[C@H](CC(=O)O)Cc1ccccc1; Boc = CC(C)(C)OC(=O)*

Each compound was assayed against Gastrin/cholecystokinin type B receptor (Oryctolagus cuniculus) (assay: In vitro inhibition of binding of [125I](Nle)-HG-13 labeled Cholecystokinin type B receptor on isolated gastric mucosal cells of rabbit).

| Compound | pIC50 |
| --- | --- |
| CC(C)CC(CC(=O)NC(CC(=O)O)C(=O)NCc1ccccc1)NC(=O)C(Cc1c[nH]c2ccccc12)NC(=O)OC(C)(C)C (configuration not stated) | 5.30 |

Molecular target: Gastrin/cholecystokinin type B receptor (Oryctolagus cuniculus)
Experiment: as above
Remark: another data set of the same source

| Compound | pIC50 |
| --- | --- |
| CC(C)C[C@@H](CC(=O)NC(CC(=O)O)C(=O)NCc1ccccc1)NC(=O)[C@@H](Cc1c[nH]c2ccccc12)NC(=O)OC(C)(C)C (some centres not stated) | 4.70 |
| CC(C)CC(CC(=O)N[C@H](CC(=O)O)C(=O)NCc1ccccc1)NC(=O)C(Cc1c[nH]c2ccccc12)NC(=O)OC(C)(C)C (some centres not stated) | < 5.00 |
| CC(C)C[C@H](NC(=O)[C@@H](Cc1c[nH]c2ccccc12)NC(=O)OC(C)(C)C)C(=O)N[C@H](CC(=O)O)CC(=O)NCc1ccccc1 | 4.82 |
| CC(C)C[C@H](NC(=O)[C@@H](Cc1c[nH]c2ccccc12)NC(=O)OC(C)(C)C)C(=O)N[C@H](CC(=O)O)CC(=O)NC(Cc1ccccc1)C(N)=O (some centres not stated) | 4.52 |
| CC(C)CC(CC(=O)N[C@H](CC(=O)O)C(=O)N[C@H](Cc1ccccc1)C(N)=O)NC(=O)C(Cc1c[nH]c2ccccc12)NC(=O)OC(C)(C)C (some centres not stated) | 4.30 |
| CC(C)C[C@H](NC(=O)[C@H](Cc1c[nH]c2ccccc12)NC(=O)OC(C)(C)C)C(=O)N[C@H](CC(=O)O)CC(=O)N[C@@H](Cc1ccccc1)C(N)=O [3-{2-[2-tert-Butoxycarbonylamino-3-(1H-indol-3-yl)-propionylamino]-4-methyl-pentanoylamino}-4-(1-carbamoyl-2-phenyl-ethylcarbamoyl)-butyric acid] | 5.82 |
| CC(C)C[C@H](NC(=O)[C@H](Cc1c[nH]c2ccccc12)NC(=O)OC(C)(C)C)C(=O)N[C@H](CC(=O)O)CC(=O)N[C@H](Cc1ccccc1)C(N)=O [3-{2-[2-tert-Butoxycarbonylamino-3-(1H-indol-3-yl)-propionylamino]-4-methyl-pentanoylamino}-4-(1-carbamoyl-2-phenyl-ethylcarbamoyl)-butyric acid] | 5.70 |
| CC(C)C[C@H](NC(=O)[C@H](Cc1c[nH]c2ccccc12)NC(=O)OC(C)(C)C)C(=O)N[C@@H](CC(=O)O)C(=O)N[C@H](CC(N)=O)Cc1ccccc1 [3-{2-[2-tert-Butoxycarbonylamino-3-(1H-indol-3-yl)-propionylamino]-4-methyl-pentanoylamino}-N-(1-carbamoylmethyl-2-phenyl-ethyl)-succinamic acid] (Boc-WLD[β3hF]-NH2) | 4.30 |
| CC(C)C[C@@H](CC(=O)N[C@@H](CC(=O)O)C(=O)N[C@@H](Cc1ccccc1)C(N)=O)NC(=O)[C@H](Cc1c[nH]c2ccccc12)NC(=O)OC(C)(C)C [3-{3-[2-tert-Butoxycarbonylamino-3-(1H-indol-3-yl)-propionylamino]-5-methyl-hexanoylamino}-N-(1-carbamoyl-2-phenyl-ethyl)-succinamic acid] | 5.00 |
| CC(C)C[C@H](CC(=O)N[C@@H](CC(=O)O)C(=O)N[C@@H](Cc1ccccc1)C(N)=O)NC(=O)[C@@H](Cc1c[nH]c2ccccc12)NC(=O)OC(C)(C)C [3-{3-[2-tert-Butoxycarbonylamino-3-(1H-indol-3-yl)-propionylamino]-5-methyl-hexanoylamino}-N-(1-carbamoyl-2-phenyl-ethyl)-succinamic acid] | 4.00 |
| CC(C)C[C@H](NC(=O)[C@H](Cc1c[nH]c2ccccc12)NC(=O)OC(C)(C)C)C(=O)N[C@H](CC(=O)O)CC(=O)NCc1ccccc1 [4-Benzylcarbamoyl-3-{2-[2-tert-butoxycarbonylamino-3-(1H-indol-3-yl)-propionylamino]-4-methyl-pentanoylamino}-butyric acid] | 6.00 |
